The values that follow are results of earlier work, collected in US7851459B2, “Methods for diluting water-stabilized antimicrobial organosilane compositions” (Vitec Speciality Chemicals Limited, priority 2007, dated 2010).

For the data set the following is noted: mixture of organosilane and water.

As for `CCCCCCCCCCCCCCCCCC[N+](C)(C)CCC[Si](OC)(OC)OC.[Cl-]` [3-(trimethoxysilyl)propyl-dimethyloctadecyl ammonium chloride], the “time until mixture with water begins to lose effectiveness” value is given as “four to eight”.
